Test results from patent US6867316B2, “Platinum(II) complexes of N-substituted amino dicarboxylates and the preparation method thereof” (Board of Trustees, Ewha Womans University, priority 2003, dated 2005).
pIC50: −log10 of the molar value.

What was measured:
leukemia L1210 cell line [1] = assay: Antitumor activity bioassay against leukemia L1210 cell line (IC50); type: cell-based
Protocol: Antitumor activities of the platinum complexes prepared in the above Examples 1 to 9 were assayed against the leukemia L1210 cell line according to the known method (S. S. Lee, O.-S. Jung, C. O. Lee, S. U. Choi, M.-J. Jun, Y. S. Sohn, Inorg. Chim. Acta, 239, 133 (1995)), and the results are shown in Table 1.

leukemia L1210 cell line [2] = assay: Antitumor activity bioassay against leukemia L1210, T/C (%) at given dosage; type: in vivo

N[C@@H]1CCCC[C@H]1N.O=C([O-])CC[C@H](NC(=O)OCc1ccccc1)C(=O)[O-].[Pt+2] (racemic) [Pt(dach)(CbzGlu), (N-carbobenzyloxy-L-glutamato-O,O)(trans-(±)-1,2-diaminocyclohexane-N,N)platinum(II)]
pIC50 (leukemia L1210 cell line [1]): 4.19
T/C (%) (leukemia L1210 cell line [2]; dosage amount 20 mg/kg): 170.0%
T/C (%) (leukemia L1210 cell line [2]; dosage amount 40 mg/kg): 207.5%

CC(C)(C)C(=O)N[C@@H](CCC(=O)[O-])C(=O)[O-].N[C@@H]1CCCC[C@H]1N.[Pt+2] (racemic) [Pt(dach)(PivGlu), (N-pivalyl-L-glutamato-O,O)(trans-(±)-1,2-diaminocyclo-hexane-N,N)platinum(II)]
pIC50 (leukemia L1210 cell line [1]): 5.65
T/C (%) (leukemia L1210 cell line [2]; dosage amount 20 mg/kg): 211.3%
T/C (%) (leukemia L1210 cell line [2]; dosage amount 40 mg/kg): 212.5%

CC(=O)N[C@@H](CCC(=O)[O-])C(=O)[O-].N[C@@H]1CCCC[C@H]1N.[Pt+2] (racemic) [Pt(dach)(AcGlu), (N-acetyl-L-glutamato-O,O)(trans-(±)-1,2-diaminocyclo-hexane-N,N)platinum(II) complex]
pIC50 (leukemia L1210 cell line [1]): 5.33
T/C (%) (leukemia L1210 cell line [2]; dosage amount 20 mg/kg): 227.3%
T/C (%) (leukemia L1210 cell line [2]; dosage amount 40 mg/kg): 190.9%

N.N.O=C([O-])C1(C(=O)[O-])CCC1.[Pt+2] [Carboplatin, reference compound]
pIC50 (leukemia L1210 cell line [1]): 4.99
T/C (%) (leukemia L1210 cell line [2]; dosage amount 40 mg/kg): 168/40%

(N-acetyl-L-aspartato-O,O)(trans-(±)-1,2-diaminocyclo-hexane-N,N)platinum(II) [Pt(dach)(AcAsp)]
pIC50 (leukemia L1210 cell line [1]): 5.43
T/C (%) (leukemia L1210 cell line [2]; dosage amount 20 mg/kg): 179.6%
T/C (%) (leukemia L1210 cell line [2]; dosage amount 40 mg/kg): 225.0%

N[C@@H]1CCCC[C@H]1N.O=C([O-])C[C@H](NC(=O)OCc1ccccc1)C(=O)[O-].[Pt+2] (racemic) [Pt(dach)(CbzAsp), (N-carbobenzyloxy-L-aspartato-O,O)(trans-(±)-1,2-diamino-cyclohexane-N,N)platinum(II)]
pIC50 (leukemia L1210 cell line [1]): 4.58
T/C (%) (leukemia L1210 cell line [2]; dosage amount 20 mg/kg): 175.0%
T/C (%) (leukemia L1210 cell line [2]; dosage amount 40 mg/kg): 193.8%

Cc1ccc(S(=O)(=O)N[C@@H](CCC(=O)[O-])C(=O)[O-])cc1.N[C@@H]1CCCC[C@H]1N.[Pt+2] (racemic) [Pt(dach)(TsGlu), (N-tosyl-L-glutamato-O,O)(trans-(±)-1,2-diaminocyclo-hexane-N,N)platinum(II)]
pIC50 (leukemia L1210 cell line [1]): 4.75
T/C (%) (leukemia L1210 cell line [2]; dosage amount 20 mg/kg): 176.3%
T/C (%) (leukemia L1210 cell line [2]; dosage amount 40 mg/kg): 191.3%

CCC(=O)N[C@@H](CCC(=O)[O-])C(=O)[O-].N[C@@H]1CCCC[C@H]1N.[Pt+2] (racemic) [Pt(dach)(ProGlu), (N-propionyl-L-glutamato-O,O)(trans-(±)-1,2-diaminocyclo-exane-N,N)platinum(II)]
pIC50 (leukemia L1210 cell line [1]): 5.53
T/C (%) (leukemia L1210 cell line [2]; dosage amount 20 mg/kg): 212.5%
T/C (%) (leukemia L1210 cell line [2]; dosage amount 40 mg/kg): 228.8%

CC(=O)N[C@@H](CC(=O)[O-])C(=O)[O-].CC(C)(CN)CN.[Pt+2] [Pt(dmpda)(AcAsp), (N-acetyl-L-aspartato-O,O)(2,2-dimethyl-1,3-propane-diamine-N,N)platinum(II)]
pIC50 (leukemia L1210 cell line [1]): 5.50
T/C (%) (leukemia L1210 cell line [2]; dosage amount 20 mg/kg): 146.2%
T/C (%) (leukemia L1210 cell line [2]; dosage amount 40 mg/kg): 160.4%

N[C@@H]1CCCC[C@H]1N.O=C([O-])CC[C@@H](C(=O)[O-])N1C(=O)c2ccccc2C1=O.[Pt+2] (racemic) [Pt(dach)(PhthGlu), (N-phthaloyl-L-glutamato-O,O)(trans-(±)-1,2-diaminocyclo-hexane-N,N)platinum(II)]
pIC50 (leukemia L1210 cell line [1]): 4.46
T/C (%) (leukemia L1210 cell line [2]; dosage amount 20 mg/kg): 177.3%
T/C (%) (leukemia L1210 cell line [2]; dosage amount 40 mg/kg): 221.6%

N.N.[Cl][Pt][Cl] [Cisplatin, reference compound]
pIC50 (leukemia L1210 cell line [1]): 6.00
T/C (%) (leukemia L1210 cell line [2]; dosage amount 4 mg/kg): 184/4%
